Results reported in PubChem BioAssay (NCI).
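GI50 marks 50% less growth. The concentration for full growth arrest is given as TGI.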

How the values were obtained:
Experiment in all cases: inhibition of tumour cell growth, NCI panel, 384-well format
ACHN renal = system: ACHN renal
NCI/ADR-RES ovarian = system: NCI/ADR-RES ovarian
NCI-H322M lung = system: NCI-H322M lung
HOP-92 NSCLC = system: HOP-92 NSCLC
SF-268 CNS = system: SF-268 CNS
UACC-257 melanoma = system: UACC-257 melanoma
MDA-MB-468 breast = system: MDA-MB-468 breast
TK-10 renal = system: TK-10 renal
OVCAR-8 ovarian = system: OVCAR-8 ovarian
IGROV1 ovarian = system: IGROV1 ovarian
RPMI-8226 leukemia = system: RPMI-8226 leukemia
SK-MEL-28 melanoma = system: SK-MEL-28 melanoma
HOP-62 NSCLC = system: HOP-62 NSCLC
MALME-3M melanoma = system: MALME-3M melanoma
NCI-H522 lung = system: NCI-H522 lung
SK-OV-3 ovarian = system: SK-OV-3 ovarian
SW-620 colon = system: SW-620 colon
NCI-H23 lung = system: NCI-H23 lung
PC-3 prostate = system: PC-3 prostate
MOLT-4 leukemia = system: MOLT-4 leukemia
KM12 colon = system: KM12 colon
BT-549 breast = system: BT-549 breast
COLO 205 colon = system: COLO 205 colon
CAKI-1 renal = system: CAKI-1 renal
SF-295 CNS = system: SF-295 CNS
T-47D breast = system: T-47D breast
HCT-15 colon = system: HCT-15 colon
786-0 renal = system: 786-0 renal
SNB-75 CNS = system: SNB-75 CNS
A549 NSCLC = system: A549 NSCLC
A498 renal = system: A498 renal
UO-31 renal = system: UO-31 renal
SN12C renal = system: SN12C renal
RXF 393 renal = system: RXF 393 renal
HL-60(TB) leukemia = system: HL-60(TB) leukemia
OVCAR-3 ovarian = system: OVCAR-3 ovarian
UACC-62 melanoma = system: UACC-62 melanoma
EKVX NSCLC = system: EKVX NSCLC
SF-539 CNS = system: SF-539 CNS
CCRF-CEM leukemia = system: CCRF-CEM leukemia
MDA-MB-231 breast = system: MDA-MB-231 breast
HCC-2998 colon = system: HCC-2998 colon
DU-145 prostate = system: DU-145 prostate
OVCAR-4 ovarian = system: OVCAR-4 ovarian
OVCAR-5 ovarian = system: OVCAR-5 ovarian
U251 glioblastoma = system: U251 glioblastoma
K-562 leukemia = system: K-562 leukemia
SNB-19 CNS = system: SNB-19 CNS
SK-MEL-5 melanoma = system: SK-MEL-5 melanoma
NCI-H460 NSCLC = system: NCI-H460 NSCLC
MDA-MB-435 melanoma = system: MDA-MB-435 melanoma
SR leukemia = system: SR leukemia
NCI-H226 lung = system: NCI-H226 lung
MCF7 breast = system: MCF7 breast
HT29 colon = system: HT29 colon
HCT-116 colon = system: HCT-116 colon

For O=C(Cc1cccc(OC(F)(F)F)c1)Nc1ccc(CCCCc2nnc(NC(=O)Cc3ccccn3)s2)nn1, the GI50 (ACHN renal) was 2.52 µM, the TGI (ACHN renal) was > 71 µM and the GI50 (NCI/ADR-RES ovarian) was > 100 µM. For the same compound, the TGI (NCI/ADR-RES ovarian) was > 100 µM, the GI50 (NCI-H322M lung) was 0.0199 µM and the TGI (NCI-H322M lung) was 0.0551 µM. It also gave a GI50 (HOP-92 NSCLC) of 6.95 µM, a TGI (HOP-92 NSCLC) of 32.4 µM and a GI50 (SF-268 CNS) of 0.201 µM. The TGI (SF-268 CNS) was 1.98 µM, the GI50 (UACC-257 melanoma) was 14.4 µM and the TGI (UACC-257 melanoma) was 48 µM. For the same compound, the GI50 (MDA-MB-468 breast) was 8.47 µM, the TGI (MDA-MB-468 breast) was 93.3 µM and the GI50 (TK-10 renal) was 0.637 µM. The TGI (TK-10 renal) was 18.3 µM, the GI50 (OVCAR-8 ovarian) was 1.22 µM and the TGI (OVCAR-8 ovarian) was 17.3 µM. The GI50 (IGROV1 ovarian) was > 31.6 µM, the TGI (IGROV1 ovarian) was > 31.6 µM and the GI50 (RPMI-8226 leukemia) was 0.0377 µM. The TGI (RPMI-8226 leukemia) was 0.175 µM, the GI50 (SK-MEL-28 melanoma) was 30.8 µM and the TGI (SK-MEL-28 melanoma) was > 87.1 µM. For the same compound, the GI50 (HOP-62 NSCLC) was 0.0537 µM, the TGI (HOP-62 NSCLC) was 0.335 µM and the GI50 (MALME-3M melanoma) was 23.1 µM. The TGI (MALME-3M melanoma) was > 56.7 µM, the GI50 (NCI-H522 lung) was 0.075 µM and the TGI (NCI-H522 lung) was 4.05 µM. The GI50 (SK-OV-3 ovarian) was 0.0809 µM, the TGI (SK-OV-3 ovarian) was 25.2 µM and the GI50 (SW-620 colon) was > 100 µM. For the same compound, the TGI (SW-620 colon) was > 100 µM, the GI50 (NCI-H23 lung) was 4.78 µM and the TGI (NCI-H23 lung) was 39.6 µM. For the same compound, the GI50 (PC-3 prostate) was > 100 µM, the TGI (PC-3 prostate) was > 100 µM and the GI50 (MOLT-4 leukemia) was 2.04 µM. For the same compound, the TGI (MOLT-4 leukemia) was > 100 µM, the GI50 (KM12 colon) was 0.068 µM and the TGI (KM12 colon) was > 100 µM. The GI50 (BT-549 breast) was 2.26 µM, the TGI (BT-549 breast) was 11.2 µM and the GI50 (COLO 205 colon) was 36.2 µM. The TGI (COLO 205 colon) was > 100 µM, the GI50 (CAKI-1 renal) was 0.193 µM and the TGI (CAKI-1 renal) was 18 µM. The GI50 (SF-295 CNS) was 5.17 µM, the TGI (SF-295 CNS) was > 23.1 µM and the GI50 (T-47D breast) was 1.87 µM. The TGI (T-47D breast) was 9.66 µM, the GI50 (HCT-15 colon) was > 72.6 µM and the TGI (HCT-15 colon) was > 100 µM. For the same compound, the GI50 ([…]-0 renal) was 0.0294 µM, the TGI (786-0 renal) was 0.248 µM and the GI50 (SNB-75 CNS) was 18.5 µM. For the same compound, the TGI (SNB-75 CNS) was 55.9 µM, the GI50 (A549 NSCLC) was 0.0172 µM and the TGI (A549 NSCLC) was 0.061 µM. For the same compound, the GI50 (A498 renal) was 0.0303 µM, the TGI (A498 renal) was 0.16 µM and the GI50 (UO-31 renal) was 5.66 µM. It also gave a GI50 (SN12C renal) of 0.0217 µM, a GI50 (RXF 393 renal) of 0.0372 µM and a TGI (RXF 393 renal) of 0.141 µM. The GI50 (HL-60(TB) leukemia) was 0.687 µM, the TGI (HL-60(TB) leukemia) was > 100 µM and the GI50 (OVCAR-3 ovarian) was > 21.4 µM. The TGI (OVCAR-3 ovarian) was > 100 µM, the GI50 (UACC-62 melanoma) was 4.76 µM and the TGI (UACC-62 melanoma) was > 33.5 µM. For the same compound, the GI50 (EKVX NSCLC) was 2.74 µM, the TGI (EKVX NSCLC) was > 100 µM and the GI50 (SF-539 CNS) was 0.224 µM. The TGI (SF-539 CNS) was 14.4 µM, the GI50 (CCRF-CEM leukemia) was 0.375 µM and the TGI (CCRF-CEM leukemia) was > 100 µM. The GI50 (MDA-MB-231 breast) was 0.0339 µM, the TGI (MDA-MB-231 breast) was 18.8 µM and the TGI (HCC-2998 colon) was > 100 µM. The GI50 (DU-145 prostate) was 31.4 µM, the TGI (DU-145 prostate) was > 100 µM and the GI50 (OVCAR-4 ovarian) was 9.65 µM. The TGI (OVCAR-4 ovarian) was > 31.1 µM, the GI50 (OVCAR-5 ovarian) was 0.362 µM and the TGI (OVCAR-5 ovarian) was > 100 µM. It also gave a GI50 (U251 glioblastoma) of 0.0338 µM, a TGI (U251 glioblastoma) of 11.8 µM and a GI50 (K-562 leukemia) of 8.95 µM. The TGI (K-562 leukemia) was > 100 µM, the GI50 (SNB-19 CNS) was 39.4 µM and the TGI (SNB-19 CNS) was 97.2 µM. For the same compound, the GI50 (SK-MEL-5 melanoma) was 0.891 µM, the TGI (SK-MEL-5 melanoma) was 17.2 µM and the GI50 (NCI-H460 NSCLC) was 0.165 µM. For the same compound, the TGI (NCI-H460 NSCLC) was 19.2 µM, the GI50 (MDA-MB-435 melanoma) was > 100 µM and the TGI (MDA-MB-435 melanoma) was > 100 µM. It also gave a GI50 (SR leukemia) of 0.439 µM, a TGI (SR leukemia) of 18.7 µM and a GI50 (NCI-H226 lung) of 0.282 µM. The TGI (NCI-H226 lung) was 0.983 µM, the GI50 (MCF7 breast) was 6.1 µM and the TGI (MCF7 breast) was > 100 µM. The GI50 (HT29 colon) was > 100 µM, the TGI (HT29 colon) was > 100 µM and the GI50 (HCT-116 colon) was 0.162 µM. The TGI (HCT-116 colon) was > 33.4 µM.
